US10669252B2, “Benzazepine derivative, preparation method, pharmaceutical composition and use thereof” (SHANGHAI DE NOVO PHARMATECH CO., LTD., priority 2016, dated 2020)

Experiments:
TLR7 = biological target: T1, TLR7 (Homo sapiens, UniProt Q9NYK1); experiment: TLR7 cell based assay (HEK-BLUE-hTLR7, SEAP reporter linked to NF-κB activation); conditions: HEK-BLUE-hTLR7 cells, 24 hours treatment, SEAP/QUANTI-Blue readout
T1 construct: host or cells: HEK293 (HEK-BLUE-hTLR7)
T1 sequence (Q9NYK1 27-1049): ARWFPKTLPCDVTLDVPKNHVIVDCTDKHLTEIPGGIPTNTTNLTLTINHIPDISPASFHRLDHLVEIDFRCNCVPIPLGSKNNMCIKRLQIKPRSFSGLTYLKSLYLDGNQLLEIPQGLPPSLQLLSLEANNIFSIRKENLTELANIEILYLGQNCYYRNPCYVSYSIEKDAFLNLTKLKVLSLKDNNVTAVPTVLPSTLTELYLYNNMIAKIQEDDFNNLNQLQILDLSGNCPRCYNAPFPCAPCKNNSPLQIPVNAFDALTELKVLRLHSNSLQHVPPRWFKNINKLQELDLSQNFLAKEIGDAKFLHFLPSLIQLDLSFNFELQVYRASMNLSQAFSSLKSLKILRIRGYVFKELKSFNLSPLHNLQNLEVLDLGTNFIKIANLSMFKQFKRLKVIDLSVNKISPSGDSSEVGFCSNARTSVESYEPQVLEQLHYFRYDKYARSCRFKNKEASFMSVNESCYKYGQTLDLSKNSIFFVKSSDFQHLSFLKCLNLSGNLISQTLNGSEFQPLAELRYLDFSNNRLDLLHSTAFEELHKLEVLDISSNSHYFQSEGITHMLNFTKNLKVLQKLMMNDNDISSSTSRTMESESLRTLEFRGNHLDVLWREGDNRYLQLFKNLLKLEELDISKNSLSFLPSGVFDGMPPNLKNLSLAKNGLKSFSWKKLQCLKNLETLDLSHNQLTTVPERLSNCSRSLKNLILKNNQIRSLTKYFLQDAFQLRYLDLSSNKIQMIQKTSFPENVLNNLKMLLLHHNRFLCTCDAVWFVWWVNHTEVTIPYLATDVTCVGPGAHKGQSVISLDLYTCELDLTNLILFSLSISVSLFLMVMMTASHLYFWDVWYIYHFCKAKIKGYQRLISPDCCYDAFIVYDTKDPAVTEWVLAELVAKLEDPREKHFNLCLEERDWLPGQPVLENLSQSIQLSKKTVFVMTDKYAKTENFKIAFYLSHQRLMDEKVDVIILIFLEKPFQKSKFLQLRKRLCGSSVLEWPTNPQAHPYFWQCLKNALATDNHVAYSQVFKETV
Experimental: (§1) In this assay, the bioactivity of compound of formula (I) was measured using a cell based assay. The assay was performed in human embryonic kidney cells (HEK293) expressing TLR7 or other TLR family members such as TLR4, and TLR9 (for selectivity screens). The activity of specific TLR agonists was assessed using the secretory embryonic alkaline phosphatase (SEAP) reporter gene that is linked to NF-κB activation in response to TLR stimulation. The SEAP activity was measured using the Quanti-Blue substrate (InvivoGen) after TLR agonist treatment.
(§2) The detailed experimental method is as follow:
HEK-BLUE-hTLR7 cell line was purchased from InvivoGen. The cells were cultured in Dulbecco's Modified Eagle's Media containing 4.5 g/L […] (Sigma-Aldrich) and 10% FBS. The cells were cultured at 37° C., 95% humidity and 5% CO2.
[…] A known TLR8 agonist was added as positive control and 1 μl of DMSO was added as negative control.
(§3) The cells were prepared as follows. The cells were removed from the incubator and growth medium was discarded. The cells were gently rinsed with pre-warmed 10 ml PBS for a T-150 flask. 12 ml pre-warmed growth medium was added, and the cells were detached by tapping the flask. Cell clumps were dissociated by gently pipetting up and down. The cells were counted. Single cell suspension was prepared at 200,000 cells per ml in growth medium and 200 μl of the cell suspension (40,000 cells per well) were immediately added to each well of the plate. The final DMSO concentration of each well was 0.5%.
The cells were cultured and treated with the compounds at 37° C., 5% CO2 for 24 hours.
(§4) 20 μL of the supernatant of each well were added to 180 μL of QUANTI-Blue, and the plates were incubated at 37° C. for 1.5 hour. Optical density was measured using a spectrophotometer at 650 nm (OD data). Activivation was calculated by using the equation below: Activivation %=(Compound OD mean value−DMSO OD mean value)/(positive control OD mean value−DMSO OD mean value)×100
(§5) The data were analyzed using the GraphPad to get EC50 values and fitting dose response curves of the compounds.

TLR8 = biological target: T2, TLR8 (Homo sapiens, UniProt Q9NR97); experiment: TLR8 cell based assay (HEK-BLUE-hTLR8, SEAP reporter linked to NF-κB activation); conditions: HEK-BLUE-hTLR8 cells
T2 construct: host or cells: HEK293 (HEK-BLUE-hTLR8)
T2 sequence (Q9NR97 27-1041): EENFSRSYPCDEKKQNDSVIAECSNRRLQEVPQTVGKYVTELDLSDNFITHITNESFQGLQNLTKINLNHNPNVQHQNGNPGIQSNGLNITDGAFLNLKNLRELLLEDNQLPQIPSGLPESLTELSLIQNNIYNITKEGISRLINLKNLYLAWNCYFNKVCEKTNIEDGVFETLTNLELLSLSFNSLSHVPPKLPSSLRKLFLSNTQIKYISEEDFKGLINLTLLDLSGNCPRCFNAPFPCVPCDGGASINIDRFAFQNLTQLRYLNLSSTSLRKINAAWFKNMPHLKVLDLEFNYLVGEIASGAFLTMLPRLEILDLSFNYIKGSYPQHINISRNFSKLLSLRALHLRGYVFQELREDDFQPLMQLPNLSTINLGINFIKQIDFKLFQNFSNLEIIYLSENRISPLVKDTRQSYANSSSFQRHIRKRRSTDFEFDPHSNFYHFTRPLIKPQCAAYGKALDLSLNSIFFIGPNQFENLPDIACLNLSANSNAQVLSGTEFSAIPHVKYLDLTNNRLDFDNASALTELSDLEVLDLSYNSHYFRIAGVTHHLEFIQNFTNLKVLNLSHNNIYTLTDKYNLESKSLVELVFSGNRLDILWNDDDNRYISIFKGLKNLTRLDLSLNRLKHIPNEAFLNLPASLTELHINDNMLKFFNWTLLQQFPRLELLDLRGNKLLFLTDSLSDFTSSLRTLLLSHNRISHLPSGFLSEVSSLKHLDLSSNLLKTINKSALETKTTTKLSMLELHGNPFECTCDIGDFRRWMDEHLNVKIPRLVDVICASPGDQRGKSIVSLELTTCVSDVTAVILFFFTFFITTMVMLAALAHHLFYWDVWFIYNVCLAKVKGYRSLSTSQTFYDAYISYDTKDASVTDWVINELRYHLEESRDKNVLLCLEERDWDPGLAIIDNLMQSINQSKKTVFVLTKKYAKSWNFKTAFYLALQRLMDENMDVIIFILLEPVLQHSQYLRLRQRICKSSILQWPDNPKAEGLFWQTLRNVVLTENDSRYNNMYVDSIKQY
Experimental: as §1, with “Iw as” for “(I) was”, “TLR8” for “TLR7”, “TLR4, TLR7” for “TLR4,”
as §2
HEK-BLUE-hTLR8 cell line was purchased from InvivoGen. The cells were cultured in Dulbecco's Modified Eagle's Media containing 4.5 g/L […] (Sigma-Aldrich) and 10% FBS. The cells were cultured at 37° C., 95% humidity and 5% CO2.
Test concentrations of the compounds ranged from 0.5 nM to 15 μM with 10 points. A known TLR8 agonist was added as positive control and 1 μl of DMSO was added as negative control.
as §3, with “follows:” for “follows.”
The cells were cultured and treated with the compounds at 37° C., 5% CO2 for 24 h.
as §4, §5

[1] = 24 h treatment, SEAP/QUANTI-Blue readout

SMILES	EC50 (TLR7) [nM]	EC50 (TLR8; [1]) [nM]	EC50 (TLR8; bound stated) [nM]
CCCN(CCC)C(=O)C1=Cc2cc(F)c(-c3ccc4c(=O)n(CC(N)=O)ccc4c3)cc2N=C(N)C1 [Compound 1-11-1]	> 50000	1000 to 10000	
CCCN(CCC)C(=O)C1=Cc2ccc(-c3ccc4c(=O)n(Cc5ccno5)ccc4c3)cc2N=C(N)C1 [Compound 1-2-29]		100 to 1000	
CCCN(CCC)C(=O)C1=Cc2c(F)cc(-c3ccc4c(=O)n(CCS(C)(=O)=O)ccc4c3)cc2N=C(N)C1 [Compound 1-10-4]		< 100	
CCCN(CCC)C(=O)C1=Cc2ccc(-c3ccc4c(=O)n(CC[S+](C)[O-])ncc4c3)cc2N=C(N)C1 (centres unmarked) [Compound 1-8-11]		< 100	
CCCN(CCC)C(=O)C1=Cc2ccc(-c3ccc4c(=O)n(CCNS(C)(=O)=O)c(=O)n(C)c4c3)cc2N=C(N)C1 [Compound 1-9-6]		< 100	
CCCN(CCC)C(=O)C1=Cc2ccc(-c3ccc4c(=O)n(CCc5cnccn5)ccc4c3)cc2N=C(N)C1 [Compound 1-2-47]		100 to 1000	
CCCN(CCC)C(=O)C1=Cc2c(Cl)cc(-c3ccc4c(=O)n(Cc5ncccn5)ncc4c3)cc2N=C(N)C1 [Compound 2-3-1]		< 100	
CCCN(CCC)C(=O)C1=Cc2ccc(-c3ccc4c(=O)n(CCNS(C)(=O)=O)ncc4c3)cc2N=C(N)C1 [Compound 1-8-8]		< 100	
CCCN(CCC)C(=O)C1=Cc2ccc(-c3ccc4c(=O)n(Cc5nnn(C)n5)ccc4c3)cc2N=C(N)C1 [Compound 1-2-39]		< 100	< 10
[2H]c1cc(-c2ccc3c(=O)n(CCS(C)(=O)=O)ncc3c2)cc2c1C=C(C(=O)N(CCC)CCC)CC(N)=N2 [Compound 2-2-4]		< 100	< 10
CCCN(CCC)C(=O)C1=Cc2ccc(-c3ccc4c(=O)n(Cc5ncnn5C)ccc4c3)cc2N=C(N)C1 [Compound 1-2-41]		< 100	< 10
CCCN(CCC)C(=O)C1=Cc2ccc(-c3ccc4c(=O)n(CCNS(C)(=O)=O)cnc4c3)cc2N=C(N)C1 [Compound 1-7-6]		100 to 1000	
CCCN(CCC)C(=O)C1=Cc2ccc(-c3ccc4c(=O)n(Cc5nccs5)ncc4c3)cc2N=C(N)C1 [Compound 1-8-10]		< 100	
CCCN(CCC)C(=O)C1=Cc2ccc(-c3ccc4c(=O)n(CC(C)(C)O)cnc4c3)cc2N=C(N)C1 [Compound 1-7-5]		< 100	

More lines, now with the values ahead:

EC50 (TLR7) [nM]	EC50 (TLR8; [1]) [nM]	EC50 (TLR8; bound stated) [nM]	SMILES
> 50000	< 100		CCCN(CCC)C(=O)C1=Cc2ccc(-c3ccc4c(=O)n(CC(C)(C)O)ccc4c3)cc2N=C(N)C1 [Compound 1-2-13]
	1000 to 10000		CCCN(CCC)C(=O)C1=Cc2ccc(-c3ccc4c(=O)n(Cc5nnn[nH]5)ccc4c3)cc2N=C(N)C1 [Compound 1-2-38]
	100 to 1000		CCCN(CCC)C(=O)C1=Cc2ccc(-c3ccc4c(=O)n(CCNS(N)(=O)=O)ccc4c3)cc2N=C(N)C1 [Compound 1-2-20]
	< 100	< 10	CCCN(CCC)C(=O)C1=Cc2ccc(-c3ccc4c(=S)n(Cc5ncccn5)ncc4c3)cc2N=C(N)C1 [Compound 1-14-1]
	< 100		CCCN(CCC)C(=O)C1=Cc2ccc(-c3ccc4c(=O)n(CC(=O)N(C)C)ccc4c3)cc2N=C(N)C1 [Compound 1-2-24]
	< 100	< 10	CCCN(CCC)C(=O)C1=Cc2c(C)cc(-c3ccc4c(=O)n(Cc5ncccn5)ncc4c3)cc2N=C(N)C1 [Compound 2-3-2]
	< 100		CCCN(CCC)C(=O)C1=Cc2ccc(-c3ccc4c(=O)n(Cc5ccccn5)ncc4c3)cc2N=C(N)C1 [Compound 1-8-20]
	< 100		CCCN(CCC)C(=O)C1=Cc2ccc(-c3ccc4c(=O)n(Cc5nnc(C)o5)ccc4c3)cc2N=C(N)C1 [Compound 1-2-30]
	< 100		CCCN(CCC)C(=O)C1=Cc2ccc(-c3ccc4c(=O)n(CCC(N)=O)ncc4c3)cc2N=C(N)C1 [Compound 1-8-7]
	1000 to 10000		CCCN(CCC)C(=O)C1=Cc2ccc(-c3ccc4c(=O)[nH]ccc4c3)cc2N=C(N)C1 [Compound 1-1-1]
	< 100	< 10	CCCN(CCC)C(=O)C1=Cc2ccc(-c3ccc4c(=O)n(Cc5nc(C)cc(C)n5)ncc4c3)cc2N=C(N)C1 [Compound 1-8-17]
	< 100		CCCN(CCC)C(=O)C1=Cc2ccc(-c3ccc4c(=O)n(Cc5nc(OC)cc(OC)n5)ncc4c3)cc2N=C(N)C1 [Compound 1-8-21]
	< 100		CCCN(CCC)C(=O)C1=Cc2ccc(-c3ccc4c(=O)n(Cc5cc[nH]n5)ccc4c3)cc2N=C(N)C1 [Compound 1-2-34]
